# In patent publication US8653108B1, “Oximes for treatment of peripheral and central nervous system exposure to acetyl cholinesterase inhibitors” (priority 2011, dated 2014):
# Legend:
# [1] = system: human MDR-1 (P-gp); assay: MDR/MDCK bidirectional transwell permeability assay; type: in vitro ADME, canine; settings: dog
# Procedure: (§1) See, Wang, Q. et al, Evaluation of the MDR-MDCK Cell Line As a Permeability Screen For The Blood Brain Barrier, Int. J. Pharm. 288(2) 349-359. The assay is a bidirectional assay in a transwell format system, assessing the permeability of compounds across a Madin Darby canine kidney cell line transfected with human MDR-1 gene. Efflux is assessed based on ratios from the basolateral and apical sides of the chamber.
# [2] = system: Madin Darby canine kidney cell line transfected with human MDR-1 gene; assay: as above; type: in vitro ADME
# Procedure: as §1
SMILES,"Papp A→B ([1]; MDCK-MDR1, apical to basolateral) [×10⁻⁶ cm/s]","Papp B→A ([1]; MDCK-MDR1, basolateral to apical) [×10⁻⁶ cm/s]",Brain Penetration Classification [2],Papp A-B ([2]; apical to basolateral) [×10⁻⁶ cm/s],Papp B-A ([2]; basolateral to apical) [×10⁻⁶ cm/s]
"CCN(CC)CCNC(=O)/C=N/O.Cl [Example 1, N-(2-(diethylamino)ethyl)-2-(hydroxyimino)acetamide hydrochloride]",< 0.51,< 0.67,Low,–,–
CS(=O)(=O)[O-].CS(=O)(=O)[O-].ON=Cc1cc[n+](C[n+]2ccc(C=NO)cc2)cc1 [MMB4 DMS],–,–,Low,<0.57,<0.57
